From PMC10808720 (Frontiers in Pharmacology, 2024)

Columns and labels:
HAdV5 = assay: HAdV-mediated endosome disruption (α-sarcin co-delivery, HPG incorporation); format: cell-based, human adenovirus (HAdV5)
Description: A549 cells (2 × 10^4 cells/well) were incubated in DMEM without cysteine or methionine supplemented with 10% dialyzed FBS [DMEM(−)] in black 96-well plates for 1 h prior to infection. Three-fold serial dilutions (0.45 ng–1,000 ng) of HAdV5, or AdV2ts1 were preincubated with cells in the presence of 10-fold IC50 concentration of the compounds obtained in the plaque assay or the same volume of DMSO for positive control for 1 h. The medium was then removed and replaced with 50 μL DMEM(−) containing 0.1 mg/ml α-sarcin (Santa Cruz Biotechnology, Dallas, Texas, USA) and drug mixtures. After 1 h at 37°C, the Click-iT L-homopropargylglycine (HPG) Alexa Fluor 488 Protein Synthesis Assay Kits (Invitrogen) was used to analyse protein synthesis according to the manufacturer’s instructions. The incorporation of the amino acid analogue of methionine HPG containing Alexa Fluor 488 azide was measured using a Typhoon 9410 imager (GE Healthcare Life Sciences) and calculated by subtracting the background level of the control well containing HPG and α-sarcin but not the virus (100% incorporation).

[1] = Cytotoxicity assay (AlamarBlue); format: cell-based, Human; settings: human, A549 cells
Description: The cytotoxicity of the molecules was analyzed using the commercial kit AlamarBlue® (Invitrogen, Ref. DAL1025) according to the manufacturer’s instructions. Briefly, A549 cells were seeded at a density of 5 × 10^3 cells per well in 96-well plates, and decreasing serial dilutions of each molecule were diluted in 100 μL of DMEM starting at 200 μM. The cells were then incubated at 37°C for 48 h following the manufacturer’s protocol. The cytotoxic concentration 50% (CC50) value was obtained using the statistical software GraphPad Prism 6. The assay was performed in duplicate.

wild-type HAdV5 [2] = assay: Nuclear-associated HAdV genomes (qPCR after nuclear isolation); format: cell-based, human adenovirus (HAdV5); settings: 10-fold IC50; 45 min after synchronized infection; A549
Description: Nuclear delivery of HAdV genomes was assessed using qPCR following nuclear isolation from infected cells. Briefly, 1 × 10^6 A549 cells in 6-well plates were infected either with wild-type HAdV5 at an MOI of 2,000 vp/cell in the presence of a 10-fold IC50 concentration of the compounds obtained in the plaque assay or the same volume of DMSO as the positive control. Forty-five minutes after infection, the A549 cells were trypsinized, collected, and washed twice with PBS. The cell pellet was resuspended in 500 μL of 1×hypotonic buffer (20 mM Tris-HCl pH 7.4, 10 mM NaCl, 3 mM MgCl2) and incubated for 15 min at 4°C. Then, 25 μL of NP-40 was added and the samples were vortexed. The homogenates were centrifuged for 10 min at 835 g at 4°C. Following the removal of the cytoplasmic fraction (supernatant), HAdV DNA was isolated from the nuclear (pellet) and cytoplasmic fractions using the E.Z.N.A.® Tissue DNA Kit (Omega Bio-tek, Norcross, GA).

HCMV = assay: Impact on HCMV replication (qPCR of HCMV DNA in HFF); format: cell-based, human cytomegalovirus; settings: 2-fold IC50 (HAdV plaque assay), 72 h
Description: To test the anti-HCMV activity of these rotenolone-related compounds, human foreskin fibroblasts (HFF; ATCC, Manassas, VA) were seeded in a 24-well plate (8.3 × 10^4 cells/well), infected with HCMV (MOI 0.05 vp/cell), and incubated in complete DMEM in the presence of either 2-fold IC50 concentration of each compound obtained in the plaque assay against HAdV or the same volume of DMSO (positive control) in duplicate. The cells were incubated for 72 h at 37°C and 5% CO2 and HCMV DNA was purified from the cell lysate using E.Z.N.A Tissue DNA Kit (Omega Biotek, Norcross, GA, USA) following the manufacturer’s instructions. The qPCR primers, conditions, and protocols were the same as previously reported ([Mazzotta et al., 2020b]).

wild-type HAdV5 [3] = assay: HAdV DNA quantification by qPCR; format: cell-based, human adenovirus (HAdV5); settings: 10-fold IC50; A549; 24 h; vs DMSO control
Description: For DNA quantification, A549 cells (1.5 × 10^5 cells/well in a 24-well plate) were incubated for 24 h in 500 μL of complete DMEM and were infected with wild-type HAdV5 (MOI 100 vp/cell) after observing more than 90% of confluency. Infected cells were incubated for 24 h at 37°C in 500 μL of either complete DMEM containing 10-fold IC50 concentration of the compounds obtained in the plaque assay or the same volume of DMSO (positive control). All samples were prepared in duplicate. After 24 h of incubation at 37°C, DNA was purified from the cell lysate with the E.Z.N.A.® Tissue DNA Kit (Omega Bio-tek, Norcross, GA) following the manufacturer’s instructions. PCR conditions, primers, and probes were as described by [Henke-Gendo et al. (2012)]. Human glyceraldehyde-3-phosphate dehydrogenase (GAPDH) gene was used as an internal control. GAPDH oligonucleotide sequences and conditions were as previously described by [Rivera et al. (2004)].
For quantification, gene fragments from hexons, and GAPDH were cloned into the pGEM-T Easy vector (Promega) and known concentrations of the template were used to generate a standard curve in parallel for each experiment, as previously reported ([Sanchez-Cespedes et al., 2016]). All assays were performed in thermal cycler LightCycler® 96 System (Roche).

HAdV-RFP = assay: Direct interaction of rotenone with HAdV particles (pre-incubated virions, RFP expression); format: cell-based, human adenovirus (HAdV5); settings: virions pre-incubated with 0.1 µM; 48 h; A549
Description: These treated virions were then added to A549 cells and incubated for 1 h on ice, to allow the HAdV particles to attach to the cells.

## C=C(C)[C@H]1Cc2c(ccc3c2O[C@@H]2COc4cc(OC)c(OC)cc4[C@@H]2C3=O)O1 [Rotenone, (2R,6aS,12aS)-8,9-dimethoxy-2-(prop-1-en-2-yl)-1,2,12,12a-tetrahydrochromeno[3,4-b]furo[2,3-h]chromen-6-(6aH)-one]
HAdV5; compared with a control without α-sarcin, 10-fold IC50, independent of virus concentration
  HPG incorporation: approximately 30%
HAdV5; α-sarcin assay
  attenuation of HAdV-mediated endosomolysis: did not attenuate
[1]
  CC50 at 48 h: 600 ± 200 nM
wild-type HAdV5 [2]
  accessibility of HAdV genomes to the nucleus: significantly blocked
HCMV
  inhibition of HCMV replication: 92.1%
wild-type HAdV5 [3]
  HAdV DNA copy number (de novo synthesis): significant decrease
HAdV-RFP
  level of RFP inhibition, cells incubated with vs without rotenone after attachment: no differences
